Experimental data taken from US20250206773A1, “FORMS AND COMPOSITIONS OF SODIUM CHENODEOXYCHOLATE” (Syntis Bio, Inc., priority 2022, published 2025).
Like-named read-outs stand apart in the source and are kept apart here.

Columns and labels:
[1] = type: physicochemical
Experimental: In-process stability of NaCDC Form B was evaluated under two conditions at reflux, as described in Table 1 below.

[2] = Polymorph screening: slurry with sonication; type: physicochemical; settings: sonicated 15 minutes then 5° C. for 30 minutes, 6 cycles
Experimental: Around 15 mg of NaCDC Form B was weighed into HPLC vials and 0.4 mL of corresponding solvents were added at RT. The slurries were sonicated for 15 minutes and then left to cool at 5° C. for 30 minutes—this cycle was repeated 6 times. At the end of the sixth cycle, all experiments were air-dried on filter paper and the recovered solids were analyzed by XRPD. Based on the XRPD data, some experiments were analyzed by HPLC.

[3] = Heating of solid at 315° C. / 360° C., then XRPD and HPLC; type: physicochemical
Experimental: Based on the results obtained from the TG/DSC analysis, a sample of NaCDC Form B was heated at 315° C. and another sample at 360° C. After heating, the samples were cooled to room temperature and analyzed by XRPD (FIG. 16). […] The material obtained after heating a sample at 360° C. was amorphous.

[4] = Polymorph screening: solvent drop grinding; type: physicochemical; settings: grinding 10 min. at RT
Experimental: Around 20 mg of NaCDC Form B was ground together with 10 μL aliquots of the corresponding solvent for 10 minutes at RT using an agate mortar with pestle. When total evaporation of the solvent was observed, another aliquot of 10 μL solvent was added and this procedure was repeated until experiment completion time. All solids were analyzed by XRPD. For the experiments where phase transformation was observed via XRPD, additional analyses of TG/DSC and/or HPLC were performed.

[5] = type: physicochemical; settings: RT
Experimental: HPLC analysis was carried out on an Agilent 1260 Infinity chromatograph, using a Hichrom C18 column 100×4.6 mm, 3.5 m, at 40° C. Method details were as follows: [table] Photostability of NaCDC Form B was evaluated by exposing it in solid state and in MeOH solutions to UV 254 nm light for 48 hours in clear, amber, and aluminum foil wrapped vials. The solutions were prepared by weighing around 10 mg NaCDC Form B and mixing it with 500 μL MeOH. The solids and solutions were sampled after 48 hours and analyzed by HPLC, in order to assess degradation. In parallel, XRPD analysis was performed on the recovered solids.

[6] = Polymorph screening: vapor diffusion onto solids; type: physicochemical
Experimental: Around 20 mg of NaCDC Form B were weighed into 1.6 mL HPLC vials. Each of the aforementioned vials was inserted individually into 40 mL vessels containing initially 0.5 mL of the corresponding solvent. The vessels were isolated from light and atmosphere and allowed to stand for 12 days, in a closed cabinet at 25° C. or in an oven at 50° C. After the experimental time, the majority of the samples remained solids/wet solids (experiments VDS02-12), which were harvested and analyzed by XRPD. […] All solids were analyzed by XRPD, and depending on the results obtained, some experiments were also analyzed by HPLC and TG/DSC.

[7] = Polymorph screening: slow evaporation; type: physicochemical
Experimental: Five stock solutions (with MeOH, water, 2,2,2-trifluoroethanol, MeOH:EtOAc (1:1 v/v) and MeOH:acetone (1:1 v/v)) were prepared with NaCDC Form B at RT. The final concentration of each solution was near that obtained from the Solubility Studies described in Example 8. Around 19-23 mg of NaCDC Form B was weighed into 1.6 mL HPLC vials (or 8 mL flask in the case of stock solutions with MeOH:EtOAc and MeOH:acetone) and dissolved in appropriate solvents at RT. In the case of the stock solution with water, around 40 mg NaCDC Form B was used. The experiments were kept at RT for 1 h with stirring (500 rpm) and then the solutions were filtered with 0.45 μm PTFE filters. During filtration of the stock solution with water, a foaming phenomenon was observed, and therefore, filtration was performed slowly and in several steps. The filtered solutions were then evaporated slowly under atmospheric pressure at 25° C. (experiments EV01-05) or at 50° C. (experiments EV06-09). After complete evaporation of the solvent, the solids were recovered and analyzed by XRPD. Depending on the results obtained from the XRPD analysis and also material availability, some experiments were analyzed by HPLC and TG/DSC.

[8] = n-BuOH/water (6/1), azeotropic reflux for 24 h
[9] = n-BuOH/water (6/1), azeotropic reflux
[10] = EV07, 2,2,2-Trifluoroethanol (TFE) 50.88 mg/mL, solids after 4 days at 50° C. and atm. pres.

SMILES: C[C@H](CCC(=O)[O-])[C@H]1CC[C@H]2[C@@H]3[C@H](O)C[C@@H]4C[C@H](O)CC[C@]4(C)[C@H]3CC[C@]12C.[Na+] [Form B, sodium chenodeoxycholate]
- HPLC Purity % CDC (t24) ([1]; n-BuOH, reflux for 24 h): 99.9%
- HPLC Purity % Cholic acid (t24) ([1]; n-BuOH, reflux for 24 h): 0.05%
- HPLC Purity % CDC (t0) ([1]; n-BuOH, reflux): 99.9%
- HPLC Purity % Cholic acid (t0) ([1]; n-BuOH, reflux): 0.05%
- HPLC Purity % CDC (t24) [1, 8]: 99.92%
- HPLC Purity % Cholic acid (t24) [1, 8]: 0.05%
- HPLC Purity % CDC (t0) [1, 9]: 99.92%
- HPLC Purity % Cholic acid (t0) [1, 9]: 0.05%
- HPLC purity (%) at 212 nm ([2]; SLS03, Ethyl acetate (EtOAc)): 90.42%
- HPLC purity (%) at 212 nm ([2]; SLS08, EtOH:MeCN (1:1 v/v)): 79.23%
- HPLC purity (%) at 212 nm ([2]; SLS09, EtOH:n-Heptane (1:1 v/v)): 89.68%
- XRPD after heating ([3]; heated at 315° C.): different diffractogram than the starting material
- XRPD after heating ([3]; heated at 360° C.): amorphous
- HPLC purity after heating ([3]; sample heated at 315° C., cooled to room temperature): 66.9%
- HPLC purity (%) at 212 nm ([4]; SDGR01, Ethanol (EtOH) 140 μL): 83.36%
- HPLC purity (%) at 212 nm ([4]; SDGR02, 2-Propanol 80 μL): 81.26%
- HPLC purity (%) at 212 nm ([4]; SDGR03, 2,2,2-Trifluoroethanol (TFE) 90 μL): 90.87%
- XRPD ([4]; SDGR04, Diisopropyl ether 160 μL): SM, l.c.
- HPLC purity (%) at 212 nm ([4]; SDGR05, MeOH:EtOAc (1:1 v/v) 260 μL): 82.04%
- HPLC purity (%) at 212 nm ([4]; SDGR06, MeOH:Acetone (1:1 v/v) 240 μL): 85.56%
- HPLC purity (%) at 212 nm ([4]; SDGR07, EtOH:MeCN (1:1 v/v) 190 μL): 86.54%
- HPLC purity (%) at 212 nm ([4]; SDGR08, EtOH:n-Heptane (1:1 v/v) 220 μL): 90.36%
- HPLC (%) at 212 nm, after 48h ([5]; ST01: UV 254 nm, solid, clear vial): 94.4%
- HPLC (%) at 212 nm, after 48h ([5]; ST02: UV 254 nm, solid, amber vial): 95.0%
- HPLC (%) at 212 nm, after 48h ([5]; ST03: UV 254 nm, solid, control - dark): 95.4%
- HPLC (%) at 212 nm, after 48h ([5]; ST04: UV 254 nm, MeOH solution, clear vial): 91.4%
- HPLC (%) at 212 nm, after 48h ([5]; ST05: UV 254 nm, MeOH solution, amber vial): 91.0%
- HPLC (%) at 212 nm, after 48h ([5]; ST06: UV 254 nm, MeOH solution, control - dark): 94.2%
- HPLC purity (%) at 212 nm ([6]; VDS01, Methanol (MeOH) vapor, 25° C., 12 days, fine suspension, evap. at 30° C., 21 mbar, overnight): 89.99%
- XRPD ([6]; VDS03, Ethyl acetate (EtOAc) vapor, diffusion at 25° C. after 12 days): SM, P.O.
- HPLC purity (%) at 212 nm ([6]; VDS05, Ethanol (EtOH) vapor, diffusion at 50° C. after 12 days): 92.11%
- XRPD ([6]; VDS06, 2-Propanol (2-PrOH) vapor, diffusion at 50° C. after 12 days): SM, P.O.
- XRPD ([6]; VDS08, Diisopropyl ether vapor, diffusion at 50° C. after 12 days): SM, P.O.
- HPLC purity (%) at 212 nm ([6]; VDS09, 2,2,2-Trifluoroethanol (TFE) vapor, diffusion at 50° C. after 12 days, slurry air-dried on filter paper): 90.89%
- XRPD ([6]; VDS11, Acetonitrile (MeCN) vapor, diffusion at 50° C. after 12 days): SM, P.O.
- HPLC purity (%) at 212 nm ([6]; VDS12, Methyl ethyl ketone (MEK) vapor, diffusion at 50° C. after 12 days): 93.65%
- HPLC purity (%) at 212 nm ([7]; EV01, Methanol (MeOH) 100.80 mg/mL, solids after 4 days at 25-30° C. and atm. pres.): 91.70%
- HPLC purity (%) at 212 nm ([7]; EV02, Water (H2O) 204.39 mg/mL, solids after 5 days at 25-30° C. and atm. pres.): 93.71%
- HPLC purity (%) at 212 nm ([7]; EV03, 2,2,2-Trifluoroethanol (TFE) 50.88 mg/mL, solids after 7 days at 25-30° C. and atm. pres.): 88.27%
- HPLC purity (%) at 212 nm ([7]; EV04, MeOH:EtOAc (1:1 v/v) 20.49 mg/mL, solids after 4 days at 25-30° C. and atm. pres.): 86.46%
- HPLC purity (%) at 212 nm ([7]; EV05, MeOH:Acetone (1:1 v/v) 20.19 mg/mL, solids after 4 days at 25-30° C. and atm. pres.): 90.22%
- HPLC purity (%) at 212 nm ([7]; EV06, Water (H2O) 204.39 mg/mL, solids after several hours (overnight) at 50° C. and atm. pres.): 93.24%
- HPLC purity (%) at 212 nm [7, 10]: 91.69%
- XRPD [7, 10]: S4 + SM, P.O.
- HPLC purity (%) at 212 nm ([7]; EV08, MeOH:EtOAc (1:1 v/v) 20.49 mg/mL, solids after several hours (overnight) at 50° C. and atm. pres.): 71.43%
- HPLC purity (%) at 212 nm ([7]; EV09, MeOH:Acetone (1:1 v/v) 20.19 mg/mL, solids after 4 days at 50° C. and atm. pres.): 87.00%
